In patent US20160235752A1, “COMPOSITIONS, METHODS OF USE, AND METHODS OF TREATMENT” (THE UNIVERSITY OF NEW ORLEANS, priority 2013, published 2016):
≈ marks a conversion by molar mass, not a printed value.

What was measured:
[1] = tested on: Candida albicans (ATCC no. 10231); test: MIC determination by broth microdilution (NCCLS), visual scoring; assay type: cell-based; conditions: for MIC80: Candida albicans, ATCC10231, read-out: MIC80 C. albicans
In short: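 NCCLS broth microdilution in RPMI 1640 with 10 mM HEPES, final compound 0.5–128 μg/mL, DMSO ≤1%. Inoculum from 0.5 McFarland stock diluted 1:50; incubated 35 °C for 48–72 h. MIC scored visually as lowest concentration giving ~80% growth reduction versus drug-free wells.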

[2] = tested on: Candida glabrata (ATCC no. 48435); test: as above; assay type: cell-based; conditions: for MIC80: Nakaseomyces glabratus, ATCC48435, read-out: MIC80 C. glabrata
[3] = Table 3, 5-Alkylated Pyrimidinetriones
[4] = Table 1, 5-Acyl-2,4,6-pyrimidinetriones, >80% growth inhibition, RPMI, 1% DMSO
[5] = Table 7, Phenylhydrazones of 5-Acylpyrimidinetriones
[6] = Table 2, 5-Arylidene-2,4,6-pyrimidinetriones
[7] = Table 5, Schiff Bases of 5-acylpyrimidinetriones
[8] = Table 8, N-Acylhydrazones of 5-Acylpyrimidinetriones
[9] = Table 4, 5,5-Dialkylated Pyrimidinetriones

## O=C1NC(=O)N(c2ccccc2)C(=O)C1CC1CCC(O)CC1 (stereo not drawn) [BA65]
[1]; [3]
  MIC80 C. albicans: — (none of the 5-acyl-2,4,6-pyrimidinetriones, 5-alkylated pyrimidinetriones or the 5,5-dialkylated pyrimidinetriones showed antifungal activity through 125 μg/mL)
[2]; [3]
  MIC80 C. glabrata: — (none of the 5-acyl-2,4,6-pyrimidinetriones, 5-alkylated pyrimidinetriones or the 5,5-dialkylated pyrimidinetriones showed antifungal activity through 125 μg/mL)

## O=C1NC(=O)C(Cc2ccc3ccccc3c2)C(=O)N1 [BA69]
[1]; [3]
  MIC80 C. albicans: — (none of the 5-acyl-2,4,6-pyrimidinetriones, 5-alkylated pyrimidinetriones or the 5,5-dialkylated pyrimidinetriones showed antifungal activity through 125 μg/mL)
[2]; [3]
  MIC80 C. glabrata: — (none of the 5-acyl-2,4,6-pyrimidinetriones, 5-alkylated pyrimidinetriones or the 5,5-dialkylated pyrimidinetriones showed antifungal activity through 125 μg/mL)

## O=C1NC(=O)C(CCCC2CCCCC2)C(=O)N1 [BA63]
[1]; [3]
  MIC80 C. albicans: — (none of the 5-acyl-2,4,6-pyrimidinetriones, 5-alkylated pyrimidinetriones or the 5,5-dialkylated pyrimidinetriones showed antifungal activity through 125 μg/mL)
[2]; [3]
  MIC80 C. glabrata: — (none of the 5-acyl-2,4,6-pyrimidinetriones, 5-alkylated pyrimidinetriones or the 5,5-dialkylated pyrimidinetriones showed antifungal activity through 125 μg/mL)

## CN1C(=O)C(C(=O)c2ccc(O)cc2)C(=O)N(C)C1=O [BA11]
[1]; [4]
  MIC80 C. albicans: — (none of the 5-acyl-2,4,6-pyrimidinetriones, 5-alkylated pyrimidinetriones or the 5,5-dialkylated pyrimidinetriones showed antifungal activity through 125 μg/mL)
[2]; [4]
  MIC80 C. glabrata: — (none of the 5-acyl-2,4,6-pyrimidinetriones, 5-alkylated pyrimidinetriones or the 5,5-dialkylated pyrimidinetriones showed antifungal activity through 125 μg/mL)

## CCCCN1C(=O)NC(=O)C(C(=NNc2ccc([N+](=O)[O-])cc2[N+](=O)[O-])c2ccccc2)C1=O (stereo not drawn) [BA31]
[1]; [5]
  MIC80 C. albicans: — (none of the 5-acyl-2,4,6-pyrimidinetriones, 5-alkylated pyrimidinetriones or the 5,5-dialkylated pyrimidinetriones showed antifungal activity through 125 μg/mL)
[2]; [5]
  MIC80 C. glabrata: — (none of the 5-acyl-2,4,6-pyrimidinetriones, 5-alkylated pyrimidinetriones or the 5,5-dialkylated pyrimidinetriones showed antifungal activity through 125 μg/mL)

## O=C1NC(=O)C(=Cc2ccccc2)C(=O)N1 [BA39]
[1]; [6]
  MIC80 C. albicans: — (none of the 5-acyl-2,4,6-pyrimidinetriones, 5-alkylated pyrimidinetriones or the 5,5-dialkylated pyrimidinetriones showed antifungal activity through 125 μg/mL)
[2]; [6]
  MIC80 C. glabrata: — (none of the 5-acyl-2,4,6-pyrimidinetriones, 5-alkylated pyrimidinetriones or the 5,5-dialkylated pyrimidinetriones showed antifungal activity through 125 μg/mL)

## C/C(=N\Nc1ccccc1)C1C(=O)NC(=O)NC1=O [BA85, 5-[(1E)-1-(2-phenylhydrazinylidene)ethyl]pyrimidine-2,4,6-trione]
[1]
  MIC80: 2 µg/mL (≈ 7.68 µM)
[2]
  MIC80: 2 µg/mL (≈ 7.68 µM)

## O=C1NC(=O)C(=Cc2ccco2)C(=O)N1 [BA56]
[1]; [6]
  MIC80 C. albicans: — (none of the 5-acyl-2,4,6-pyrimidinetriones, 5-alkylated pyrimidinetriones or the 5,5-dialkylated pyrimidinetriones showed antifungal activity through 125 μg/mL)
[2]; [6]
  MIC80 C. glabrata: — (none of the 5-acyl-2,4,6-pyrimidinetriones, 5-alkylated pyrimidinetriones or the 5,5-dialkylated pyrimidinetriones showed antifungal activity through 125 μg/mL)

## CN1C(=O)C(C=Nc2ccncc2)C(=O)N(C)C1=O [BA82]
[1]; [7]
  MIC80 C. albicans: — (none of the 5-acyl-2,4,6-pyrimidinetriones, 5-alkylated pyrimidinetriones or the 5,5-dialkylated pyrimidinetriones showed antifungal activity through 125 μg/mL)
[2]; [7]
  MIC80 C. glabrata: — (none of the 5-acyl-2,4,6-pyrimidinetriones, 5-alkylated pyrimidinetriones or the 5,5-dialkylated pyrimidinetriones showed antifungal activity through 125 μg/mL)

## CN1C(=O)C(=Cc2ccc(N(C)C)cc2)C(=O)N(C)C1=O [BA54]
[1]; [6]
  MIC80 C. albicans: — (none of the 5-acyl-2,4,6-pyrimidinetriones, 5-alkylated pyrimidinetriones or the 5,5-dialkylated pyrimidinetriones showed antifungal activity through 125 μg/mL)
[2]; [6]
  MIC80 C. glabrata: — (none of the 5-acyl-2,4,6-pyrimidinetriones, 5-alkylated pyrimidinetriones or the 5,5-dialkylated pyrimidinetriones showed antifungal activity through 125 μg/mL)

## O=C1NC(=O)C(/C=N/Nc2ccccc2)C(=O)N1 [BA74, 5-[(E)-(2-phenylhydrazinylidene)methyl]pyrimidine-2,4,6-trione]
[1]
  MIC80: 4 µg/mL (≈ 16.2 µM)
[2]
  MIC80: 2 µg/mL (≈ 8.12 µM)

## O=C1NC(=O)C(C(=O)c2cc([N+](=O)[O-])cc([N+](=O)[O-])c2)C(=O)N1 [BA8]
[1]; [4]
  MIC80 C. albicans: — (none of the 5-acyl-2,4,6-pyrimidinetriones, 5-alkylated pyrimidinetriones or the 5,5-dialkylated pyrimidinetriones showed antifungal activity through 125 μg/mL)
[2]; [4]
  MIC80 C. glabrata: — (none of the 5-acyl-2,4,6-pyrimidinetriones, 5-alkylated pyrimidinetriones or the 5,5-dialkylated pyrimidinetriones showed antifungal activity through 125 μg/mL)

## CN1C(=O)C(C(=O)c2cccnc2)C(=O)N(C)C1=O [BA17]
[1]; [4]
  MIC80 C. albicans: — (none of the 5-acyl-2,4,6-pyrimidinetriones, 5-alkylated pyrimidinetriones or the 5,5-dialkylated pyrimidinetriones showed antifungal activity through 125 μg/mL)
[2]; [4]
  MIC80 C. glabrata: — (none of the 5-acyl-2,4,6-pyrimidinetriones, 5-alkylated pyrimidinetriones or the 5,5-dialkylated pyrimidinetriones showed antifungal activity through 125 μg/mL)

## O=C1NC(=O)C(=Cc2cccc3ccccc23)C(=O)N1 [BA41]
[1]; [6]
  MIC80 C. albicans: 125 µg/mL (≈ 469 µM)
[2]; [6]
  MIC80 C. glabrata: — (none of the 5-acyl-2,4,6-pyrimidinetriones, 5-alkylated pyrimidinetriones or the 5,5-dialkylated pyrimidinetriones showed antifungal activity through 125 μg/mL)

## O=C1NC(=O)C(CCCc2ccccc2)C(=O)N1 [BA66]
[1]; [3]
  MIC80 C. albicans: — (none of the 5-acyl-2,4,6-pyrimidinetriones, 5-alkylated pyrimidinetriones or the 5,5-dialkylated pyrimidinetriones showed antifungal activity through 125 μg/mL)
[2]; [3]
  MIC80 C. glabrata: — (none of the 5-acyl-2,4,6-pyrimidinetriones, 5-alkylated pyrimidinetriones or the 5,5-dialkylated pyrimidinetriones showed antifungal activity through 125 μg/mL)

## CN1C(=O)NC(=O)C(C(=O)c2ccccc2)C1=O (stereo not drawn) [BA2]
[1]; [4]
  MIC80 C. albicans: — (none of the 5-acyl-2,4,6-pyrimidinetriones, 5-alkylated pyrimidinetriones or the 5,5-dialkylated pyrimidinetriones showed antifungal activity through 125 μg/mL)
[2]; [4]
  MIC80 C. glabrata: — (none of the 5-acyl-2,4,6-pyrimidinetriones, 5-alkylated pyrimidinetriones or the 5,5-dialkylated pyrimidinetriones showed antifungal activity through 125 μg/mL)

## COC(=O)NN=C(C)C1C(=O)NC(=O)NC1=O [BA86]
[1]; [8]
  MIC80 C. albicans: — (none of the 5-acyl-2,4,6-pyrimidinetriones, 5-alkylated pyrimidinetriones or the 5,5-dialkylated pyrimidinetriones showed antifungal activity through 125 μg/mL)
[2]; [8]
  MIC80 C. glabrata: — (none of the 5-acyl-2,4,6-pyrimidinetriones, 5-alkylated pyrimidinetriones or the 5,5-dialkylated pyrimidinetriones showed antifungal activity through 125 μg/mL)

## COc1ccc(C(=O)C2C(=O)N(C)C(=O)N(C)C2=O)cc1 [BA15]
[1]; [4]
  MIC80 C. albicans: — (none of the 5-acyl-2,4,6-pyrimidinetriones, 5-alkylated pyrimidinetriones or the 5,5-dialkylated pyrimidinetriones showed antifungal activity through 125 μg/mL)
[2]; [4]
  MIC80 C. glabrata: — (none of the 5-acyl-2,4,6-pyrimidinetriones, 5-alkylated pyrimidinetriones or the 5,5-dialkylated pyrimidinetriones showed antifungal activity through 125 μg/mL)

## COc1cc(OC)c(C=C2C(=O)N(C)C(=O)N(C)C2=O)c(OC)c1 [BA52]
[1]; [6]
  MIC80 C. albicans: — (none of the 5-acyl-2,4,6-pyrimidinetriones, 5-alkylated pyrimidinetriones or the 5,5-dialkylated pyrimidinetriones showed antifungal activity through 125 μg/mL)
[2]; [6]
  MIC80 C. glabrata: — (none of the 5-acyl-2,4,6-pyrimidinetriones, 5-alkylated pyrimidinetriones or the 5,5-dialkylated pyrimidinetriones showed antifungal activity through 125 μg/mL)

## CN1C(=O)C(C(=O)c2ccccc2)C(=O)N(C)C1=O [BA3, 5-benzoyl-1,3-dimethylpyrimidine-2,4,6-trione]
[1]
  MIC80: > 125 µg/mL
[2]
  MIC80: > 125 µg/mL

## O=C1NC(=O)C(Cc2ccccc2)(Cc2ccccc2)C(=O)N1 [BA70]
[1]; [9]
  MIC80 C. albicans: — (none of the 5-acyl-2,4,6-pyrimidinetriones, 5-alkylated pyrimidinetriones or the 5,5-dialkylated pyrimidinetriones showed antifungal activity through 125 μg/mL)
[2]; [9]
  MIC80 C. glabrata: — (none of the 5-acyl-2,4,6-pyrimidinetriones, 5-alkylated pyrimidinetriones or the 5,5-dialkylated pyrimidinetriones showed antifungal activity through 125 μg/mL)
